Results as given in patent US11001587B2, “Substituted indazoles as phosphatidylinositol kinase inhibitors” (CUROVIR AB, priority 2017, dated 2021).
Like-named read-outs stand apart in the source and are kept apart here.

How the values were obtained:
[1] = system: Enterovirus 30; experiment: In vitro CPE assay in mammalian cell culture, EV30; assay type: cell-based; settings: viral cytopathic effect in mammalian cell culture, read-out: EV30 inhibition capacity (IC50)
[2] = Metabolic stability in human liver microsomes; assay type: in vitro ADME; settings: for Remaining after 1 h, HLM: human liver microsomes, 5 μM test item, 0.125 mg/mL microsomal protein; for half-life at 5 μM: human, microsomes
Method: (§1) Metabolic stability in human and rat liver microsomesMetabolic stability was studied using human (HLM) or rat (RLM) liver microsomes. The final composition of the assay included 5 μM of test item and reference item (Diclofenac or Imipramine) prepared from DMSO stock, so that the final concentration of DMSO was 0.1%, 0.125 mg/mL microsomal protein and cofactors (5.0 mM G-6-P, 0.06 U/mL G-6-PDH, 2.0 mM MgCl2, 1.0 mM NADP^+). Test and reference items were incubated with human or rat liver microsomes with or without cofactors. The reaction mixture (100 μL) was removed at specified time periods and the reaction was stopped by addition of stop solution. The samples were extracted in presence of internal standard and were analyzed using LC-MS/MS. The percent of the test/reference item remaining after a specified incubation period was calculated with respect to the peak area ratio at time 0 min.

[3] = system: Enterovirus 71; experiment: In vitro CPE assay in mammalian cell culture, EV71; assay type: cell-based; settings: Enterovirus A, viral cytopathic effect in mammalian cell culture, read-out: EV71 inhibition capacity (IC50)
[4] = system: coxsackie B5 virus; experiment: In vitro CPE assay in mammalian cell culture, B5; assay type: cell-based; settings: viral cytopathic effect in mammalian cell culture, read-out: B5 inhibition capacity (IC50)
[5] = system: Enterovirus 68; experiment: In vitro CPE assay in mammalian cell culture, EV68; assay type: cell-based; settings: Enterovirus D, viral cytopathic effect in mammalian cell culture, read-out: EV68 inhibition capacity (IC50)
[6] = in vivo; set-up: species or system Sprague Dawley rats; settings: male, Sprague Dawley, rat, po, 50 mg/kg
Method: Overnight fasted animals were administered with the test compounds in recommended vehicle 0.4% (v/v) Tween 80+2% (v/v) Glycerol and 15% w/v HPBCD by oral route with a dose of 50 mg/kg body weight at dose volume of 10 mL/kg bw. Under mild isoflurane anesthesia, blood samples were collected into pre-labeled tubes containing anticoagulant (K2EDTA—2 mg/mL blood) during the next 24 hours post dose. Collected blood samples were centrifuged at 4000 rpm, 4° C. for 10 minutes and plasma was separated and stored at −80° C. until analysis.

[7] = system: coxsackie B3 virus; experiment: In vitro CPE assay in mammalian cell culture, B3; assay type: cell-based; settings: Enterovirus B, viral cytopathic effect in mammalian cell culture, read-out: B3 inhibition capacity (IC50)
[8] = system: polio virus Sabin 1; experiment: organism not typed; assay type: cell-based; settings: read-out: Polio 1 inhibition capacity (IC50)
[9] = system: coxsackie B2 virus; experiment: In vitro CPE assay in mammalian cell culture, B2; assay type: cell-based; settings: viral cytopathic effect in mammalian cell culture, read-out: B2 inhibition capacity (IC50)
[10] = system: Enterovirus 6; experiment: In vitro CPE assay in mammalian cell culture, EV6; assay type: cell-based; settings: viral cytopathic effect in mammalian cell culture, read-out: EV6 inhibition capacity (IC50)
[11] = in vitro; assay type: in vitro ADME; settings: plasma, pH 7.4
Method: Plasma protein binding study was performed by using a Rapid Equilibrium Dialysis (RED) device containing dialysis membrane with a molecular weight cut-off of 8,000 Daltons. Each dialysis insert contains two chambers. The red chamber was for the plasma while the white chamber was for the buffer. The human and rat plasma (pH adjusted to 7.40) samples of test items and reference items (Warfarin and Propranolol) were prepared at a required test concentration of 5 μM using 5 mM DMSO stocks (final DMSO concentration was 0.1%). 300 μL of plasma sample was added into the sample chamber. 500 μL of buffer was added into the buffer chamber. After sealing the RED device with an adhesive film, incubation was done at 37° C. with shaking at 300 rpm for 4 h. Following incubation, an aliquot of 50 μL was removed from each well (plasma and buffer side) and diluted with equal volume of opposite matrix to nullify the matrix effect. The specimens were subjected to sample extraction in presence of internal standard by liquid-liquid extraction/protein precipitation method. After extraction, the samples were transferred into labeled auto sampler vials and submitted to LC-MS/MS analysis.

[12] = Metabolic stability in rat liver microsomes; assay type: in vitro ADME; settings: 5 μM test item, 0.125 mg/mL microsomal protein
Method: as §1

[13] = system: coxsackie B1 virus; experiment: In vitro CPE assay in mammalian cell culture, B1; assay type: cell-based; settings: viral cytopathic effect in mammalian cell culture, read-out: B1 inhibition capacity (IC50)
[14] = system: coxsackie B4 virus; experiment: In vitro CPE assay in mammalian cell culture, B4; assay type: cell-based; settings: Enterovirus B, viral cytopathic effect in mammalian cell culture, read-out: B4 inhibition capacity (IC50)
[15] = molecular target: PI3Kα (Homo sapiens, UniProt P42336); experiment: PI3 kinase inhibition HTRF assay; assay type: biochemical; settings: * no inhibition at the highest tested concentration 1 μM
Sequence of PI3Kα (P42336 whole entry, species assumed): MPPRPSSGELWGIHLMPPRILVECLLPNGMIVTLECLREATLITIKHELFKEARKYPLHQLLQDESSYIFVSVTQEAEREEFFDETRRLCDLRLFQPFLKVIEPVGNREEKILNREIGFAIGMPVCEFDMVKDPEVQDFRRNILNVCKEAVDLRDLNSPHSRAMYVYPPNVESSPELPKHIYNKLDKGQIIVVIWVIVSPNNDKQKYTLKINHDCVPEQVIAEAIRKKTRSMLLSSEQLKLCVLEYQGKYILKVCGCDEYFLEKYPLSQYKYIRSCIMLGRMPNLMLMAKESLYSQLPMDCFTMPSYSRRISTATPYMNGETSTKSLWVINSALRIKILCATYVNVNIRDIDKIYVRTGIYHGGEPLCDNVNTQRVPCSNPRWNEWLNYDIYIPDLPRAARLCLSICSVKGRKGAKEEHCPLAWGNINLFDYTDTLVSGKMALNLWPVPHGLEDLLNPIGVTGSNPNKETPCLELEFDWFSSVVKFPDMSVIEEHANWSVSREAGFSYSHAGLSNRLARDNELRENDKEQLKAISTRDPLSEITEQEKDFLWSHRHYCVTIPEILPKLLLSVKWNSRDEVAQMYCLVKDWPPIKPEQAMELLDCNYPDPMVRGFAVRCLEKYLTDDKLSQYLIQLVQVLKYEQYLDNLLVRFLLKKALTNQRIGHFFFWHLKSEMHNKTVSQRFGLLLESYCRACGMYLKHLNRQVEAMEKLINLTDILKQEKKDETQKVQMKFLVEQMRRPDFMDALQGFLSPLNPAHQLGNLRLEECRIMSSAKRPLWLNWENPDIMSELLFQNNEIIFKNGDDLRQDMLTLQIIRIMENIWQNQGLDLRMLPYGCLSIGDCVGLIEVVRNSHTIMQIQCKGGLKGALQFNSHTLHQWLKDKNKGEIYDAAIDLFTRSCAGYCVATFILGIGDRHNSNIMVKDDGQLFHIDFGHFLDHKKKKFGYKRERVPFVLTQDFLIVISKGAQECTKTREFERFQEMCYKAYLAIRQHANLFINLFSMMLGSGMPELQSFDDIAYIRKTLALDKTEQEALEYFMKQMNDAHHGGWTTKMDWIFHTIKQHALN
Sequence of PI3Kα (P27986 whole entry partner, species assumed): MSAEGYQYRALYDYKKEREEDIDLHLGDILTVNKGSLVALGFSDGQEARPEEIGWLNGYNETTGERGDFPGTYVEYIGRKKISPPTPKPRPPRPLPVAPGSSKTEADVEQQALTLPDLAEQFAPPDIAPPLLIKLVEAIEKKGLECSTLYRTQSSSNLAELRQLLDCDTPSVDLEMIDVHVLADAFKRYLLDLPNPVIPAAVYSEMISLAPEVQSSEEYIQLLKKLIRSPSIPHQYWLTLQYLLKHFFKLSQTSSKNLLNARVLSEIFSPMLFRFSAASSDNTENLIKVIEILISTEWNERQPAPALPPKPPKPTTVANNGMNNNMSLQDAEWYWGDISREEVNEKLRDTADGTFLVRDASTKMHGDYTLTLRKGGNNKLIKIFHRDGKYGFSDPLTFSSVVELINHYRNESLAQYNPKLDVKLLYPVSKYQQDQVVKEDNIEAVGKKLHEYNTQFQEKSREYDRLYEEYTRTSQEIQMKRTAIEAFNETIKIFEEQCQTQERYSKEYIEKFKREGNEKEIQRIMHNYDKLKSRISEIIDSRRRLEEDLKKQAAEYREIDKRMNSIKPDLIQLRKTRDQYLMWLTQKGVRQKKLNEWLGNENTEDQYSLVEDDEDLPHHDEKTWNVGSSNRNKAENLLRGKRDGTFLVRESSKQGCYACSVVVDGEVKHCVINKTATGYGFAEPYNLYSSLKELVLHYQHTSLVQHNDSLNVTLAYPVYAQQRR
Method: (§2) Phosphatidyl inositol kinase inhibition assay Inhibition of PI4 kinases was studied using the ADP-Glo™ Kinase Assay which is a luminescent kinase assay that measures ADP formed from a kinase reaction, wherein ADP is converted into ATP, which is converted into light by Ultra-Glo™ Luciferase. The assay is performed in two steps; first, after the kinase reaction, an equal volume of ADP-Glo™ Reagent is added to terminate the kinase reaction and deplete the remaining ATP. In the second step, the Kinase Detection Reagent is added, which simultaneously converts ADP to ATP and allows the newly synthesized ATP to be measured using a coupled luciferase/luciferin reaction. The luminescent signal produced is proportional to the activity of the kinase. Inhibition of PI3 kinases was studied using the HTRF (homogeneous time-resolved fluorescence) assay, which is a universal method for identifying and characterizing the phosphotransferase activity induced by any ATP/ADP dependent target. The formation of ADP was detected by a specific monoclonal antibody labeled with Eu^3+ cryptate, and directly correlated with the amount of phosphorylated substrate.

[16] = molecular target: PI3Kβ (Homo sapiens, UniProt P42338); experiment: PI3 kinase inhibition HTRF assay; assay type: biochemical; settings: * no inhibition at the highest tested concentration 1 μM
Method: as §2

[17] = molecular target: PI4KIIIα (Homo sapiens, UniProt P42356); experiment: Phosphatidyl inositol kinase inhibition assay (ADP-Glo Kinase Assay); assay type: biochemical; settings: * no inhibition at the highest tested concentration 1 μM
Sequence of PI4KIIIα (P42356 whole entry): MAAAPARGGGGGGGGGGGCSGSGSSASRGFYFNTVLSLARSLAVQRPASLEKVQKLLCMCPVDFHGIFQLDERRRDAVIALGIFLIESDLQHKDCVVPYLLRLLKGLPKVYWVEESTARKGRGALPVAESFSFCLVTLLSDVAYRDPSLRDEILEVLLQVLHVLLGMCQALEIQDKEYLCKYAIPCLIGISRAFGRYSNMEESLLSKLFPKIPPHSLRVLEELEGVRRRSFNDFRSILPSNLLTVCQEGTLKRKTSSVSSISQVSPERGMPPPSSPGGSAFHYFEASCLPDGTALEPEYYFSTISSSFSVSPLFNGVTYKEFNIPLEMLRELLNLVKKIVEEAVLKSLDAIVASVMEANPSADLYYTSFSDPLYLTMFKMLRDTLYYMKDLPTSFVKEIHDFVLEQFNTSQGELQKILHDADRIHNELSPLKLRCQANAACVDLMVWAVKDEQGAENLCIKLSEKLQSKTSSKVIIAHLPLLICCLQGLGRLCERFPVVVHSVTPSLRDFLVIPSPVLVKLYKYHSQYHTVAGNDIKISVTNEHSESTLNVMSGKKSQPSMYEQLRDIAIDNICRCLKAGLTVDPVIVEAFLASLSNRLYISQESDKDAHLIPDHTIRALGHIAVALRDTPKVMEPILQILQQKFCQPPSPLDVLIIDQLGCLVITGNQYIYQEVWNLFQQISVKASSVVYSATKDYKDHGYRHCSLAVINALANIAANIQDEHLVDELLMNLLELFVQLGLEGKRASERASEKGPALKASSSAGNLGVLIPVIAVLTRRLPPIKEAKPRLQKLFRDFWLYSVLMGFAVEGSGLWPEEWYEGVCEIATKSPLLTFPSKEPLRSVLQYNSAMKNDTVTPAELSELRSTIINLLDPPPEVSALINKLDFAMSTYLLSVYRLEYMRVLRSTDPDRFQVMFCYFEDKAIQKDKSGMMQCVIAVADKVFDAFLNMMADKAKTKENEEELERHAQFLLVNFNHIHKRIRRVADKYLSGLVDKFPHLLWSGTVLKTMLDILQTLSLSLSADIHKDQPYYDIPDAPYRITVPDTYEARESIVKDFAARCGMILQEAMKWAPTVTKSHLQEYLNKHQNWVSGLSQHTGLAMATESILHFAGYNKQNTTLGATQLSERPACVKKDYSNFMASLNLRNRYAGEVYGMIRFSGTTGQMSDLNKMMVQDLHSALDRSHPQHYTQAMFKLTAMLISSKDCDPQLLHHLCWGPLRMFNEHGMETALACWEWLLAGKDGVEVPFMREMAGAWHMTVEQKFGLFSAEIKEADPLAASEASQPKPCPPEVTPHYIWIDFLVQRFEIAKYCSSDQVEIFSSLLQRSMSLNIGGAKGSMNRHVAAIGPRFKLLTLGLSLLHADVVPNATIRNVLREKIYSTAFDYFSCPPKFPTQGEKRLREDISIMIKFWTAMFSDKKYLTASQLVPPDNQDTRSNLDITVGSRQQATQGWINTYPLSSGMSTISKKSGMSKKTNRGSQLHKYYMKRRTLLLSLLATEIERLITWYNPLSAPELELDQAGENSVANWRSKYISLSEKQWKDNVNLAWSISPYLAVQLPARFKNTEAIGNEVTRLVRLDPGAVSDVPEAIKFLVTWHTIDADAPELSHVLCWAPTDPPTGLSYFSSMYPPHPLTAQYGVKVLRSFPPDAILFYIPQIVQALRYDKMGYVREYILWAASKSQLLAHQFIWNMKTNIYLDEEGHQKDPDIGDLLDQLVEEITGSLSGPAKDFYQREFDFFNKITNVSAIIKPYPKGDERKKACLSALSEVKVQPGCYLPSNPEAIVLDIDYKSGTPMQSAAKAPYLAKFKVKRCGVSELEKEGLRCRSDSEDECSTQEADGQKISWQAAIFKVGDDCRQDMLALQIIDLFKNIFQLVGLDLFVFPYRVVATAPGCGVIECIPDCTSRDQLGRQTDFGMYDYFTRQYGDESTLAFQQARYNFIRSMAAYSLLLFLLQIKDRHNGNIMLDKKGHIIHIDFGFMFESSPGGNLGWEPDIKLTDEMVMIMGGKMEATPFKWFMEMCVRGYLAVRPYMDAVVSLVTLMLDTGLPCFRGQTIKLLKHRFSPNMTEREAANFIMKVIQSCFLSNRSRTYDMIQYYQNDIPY
Method: as §2

[18] = molecular target: PI4KIIIβ (Homo sapiens, UniProt Q9UBF8); experiment: as above; assay type: biochemical
Sequence of PI4KIIIβ (Q9UBF8 whole entry): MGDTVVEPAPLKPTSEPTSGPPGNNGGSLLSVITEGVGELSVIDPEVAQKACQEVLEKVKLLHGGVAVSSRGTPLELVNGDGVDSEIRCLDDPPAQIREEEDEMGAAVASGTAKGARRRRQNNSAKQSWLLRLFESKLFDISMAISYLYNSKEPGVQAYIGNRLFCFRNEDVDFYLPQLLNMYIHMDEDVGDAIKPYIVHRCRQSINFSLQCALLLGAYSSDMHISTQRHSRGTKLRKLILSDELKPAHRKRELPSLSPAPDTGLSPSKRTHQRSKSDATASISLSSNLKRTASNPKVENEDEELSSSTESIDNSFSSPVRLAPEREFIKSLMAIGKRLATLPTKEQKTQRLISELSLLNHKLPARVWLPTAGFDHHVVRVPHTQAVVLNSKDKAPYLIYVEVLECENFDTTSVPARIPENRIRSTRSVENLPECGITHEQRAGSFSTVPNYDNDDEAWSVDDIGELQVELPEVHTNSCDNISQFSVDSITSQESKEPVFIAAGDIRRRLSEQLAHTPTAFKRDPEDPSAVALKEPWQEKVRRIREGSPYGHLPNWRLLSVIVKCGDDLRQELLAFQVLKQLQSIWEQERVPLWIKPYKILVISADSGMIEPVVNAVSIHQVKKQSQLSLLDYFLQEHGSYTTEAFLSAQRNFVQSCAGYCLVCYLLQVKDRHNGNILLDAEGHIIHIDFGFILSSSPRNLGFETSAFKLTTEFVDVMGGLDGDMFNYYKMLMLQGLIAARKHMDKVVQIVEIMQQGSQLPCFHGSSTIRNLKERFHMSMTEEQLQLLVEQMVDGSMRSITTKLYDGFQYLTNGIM
Method: as §2

[19] = system: EV71; experiment: Time of addition assay; assay type: cell-based, Enterovirus 71; settings: Enterovirus A, 100 nM, EV71 at high titer
Method: The titer of the virus was determined by the standard method of tissue culture infective dose (TCID50) on cells. Briefly, cells were infected with 50 μl of virus suspension, and diluted 10-fold in media. The plates were incubated in 37° C. with 5% CO2 for 3-7 days and cells were inspected daily for CPE. After determining CPE, plates were stained with Gram's Crystal Violet solution and optical density was read at 540 nm. […] Substances at a final concentration of 0.1 nM-1 μM and the virus were added to the cells and incubated for 3-7 days depending on the virus and cell line used. As controls, uninfected cells and cells infected with virus (no substance) were included on each plate. The cells were stained with crystal violet after determining the CPE on infected controls and the optical density was read at 540 nm. The inhibition capacity was calculated as a % by comparison with non-infected and infected controls. Time of addition assay The assay was performed like the “in vitro assay in mammalian cell culture” described above with the exception that substance was added one hour pre inoculation (−1 h), at inoculation (0 h), and 2 hours (+2 h), 6 hours (+6 h) or 24 hours (+24 h) past inoculation. The virus EV71 was used at high titer for the test.

SMILES | IC50 [1] [nM] | IC50 [3] [nM] | IC50 [4] [nM] | IC50 [5] [nM] | AUC(0-inf) [6] [ng·h/mL] | AUC(0-t) [6] [ng·h/mL] | AUCextrap [6] [%] | Cmax [6] [ng/mL] | MRT last [6] [h] | Tmax [6] [h] | half-life [6] [h] | IC50 [7] [nM] | IC50 [8] [nM] | IC50 [9] [nM] | IC50 [10] [nM] | IC50 [13] [nM] | IC50 [14] [nM] | further results
Cc1cc(NCc2ccncc2)c2nc(C)c(-c3ccc4c(c3)c(C)nn4C)n2n1 [Example 1, 3-(1,3-dimethyl-1H-indazol-5-yl)-2,6-dimethyl-N-(pyridin-4-ylmethyl)imidazo[1,2-b]pyridazin-8-amine] | < 0.1 | < 10 | < 0.1 | < 100 | 31800 ± 8000 | 22200 ± 2100 | 27.8 ± 14.8 | 3900 ± 400 | 3.4 ± 0.2 | 1.7 ± 0.6 | 4.3 ± 2 | < 1 | < 1 | < 10 | < 10 | < 10 |  | Remaining after 1 h, HLM [2]: 90%; half-life at 5 μM [2]: > 2 h; fraction unbound at 4 h, 5 μM ([11]; human): 0.016; fraction unbound at 4 h, 5 μM ([11]; rat): 0.03; Remaining after 1 h, RLM [12]: 88%
Cc1ccc(CNc2cc(C)nn3c(-c4ccc5c(c4)c(C)nn5C)c(C)nc23)cn1 [Example 2, 3-(1,3-dimethyl-1H-indazol-5-yl)-2,6-dimethyl-N-((6-methylpyridin-3-yl)methyl)imidazo[1,2-b]pyridazin-8-amine] | < 100 | < 100 | < 100 | < 1000 | 64100 ± 7000 | 58600 ± 9900 | 8.8 ± 7.1 | 4800 ± 800 | 6.9 ± 0.8 | 1.7 ± 0.6 | 6.6 ± 2.4 | < 10 | < 100 | < 100 | < 100 | < 100 | < 10 | IC50 [15]: > 1000 nM; IC50 [16]: 1700 nM; IC50 [17]: 200 nM; IC50 [18]: 1.5 nM
Cc1cc(NCc2ccc(S(C)(=O)=O)cc2)c2nc(C)c(-c3ccc4c(c3)c(C)nn4C)n2n1 [Example 7, 3-(1,3-dimethyl-1H-indazol-5-yl)-2,6-dimethyl-N-(4-(methyl-sulfonyl)benzyl)imidazo[1,2-b]pyridazin-8-amine] | < 100 | < 1 | < 10 | < 1 |  |  |  |  |  |  |  | < 1 | < 10 | < 10 |  | < 10 | < 100 | Remaining after 1 h, HLM [2]: 75%; half-life at 5 μM [2]: > 2 h; fraction unbound at 4 h, 5 μM ([11]; human): 0.005; fraction unbound at 4 h, 5 μM ([11]; rat): 0.006; Remaining after 1 h, RLM [12]: 94%; inhibition at 0.1 µM ([19]; 0 h, substance added at inoculation, read-out: Inhibition of cytopathogenic effect, 0 h): 85%; inhibition at 0.1 µM ([19]; 1 h, substance added one hour pre inoculation, read-out: Inhibition of cytopathogenic effect, −1 h): 95%; inhibition at 0.1 µM ([19]; substance added 2 hours past inoculation, read-out: Inhibition of cytopathogenic effect, +2 h): 100%; inhibition at 0.1 µM ([19]; substance added 6 hours past inoculation, read-out: Inhibition of cytopathogenic effect, +6 h): 91%; inhibition at 0.1 µM ([19]; substance added 24 hours past inoculation, read-out: Inhibition of cytopathogenic effect, +24 h): 2%
Cc1cc(NCc2ccc(S(N)(=O)=O)cc2)n2nc(C)c(-c3ccc4c(c3)c(C)nn4C)c2n1 [Example 13, 4-(((3-(1,3-dimethyl-1H-indazol-5-yl)-2,5-dimethylpyrazolo[1,5-a]pyrimidin-7-yl)amino)methyl)benzene-sulfonamide] | < 100 | < 100 | < 100 | < 1000 | 76100 ± 26800 | 62100 ± 10900 | 14.5 ± 17.1 | 5900 ± 900 | 7.5 ± 1.4 | 2 | 8.2 ± 5.4 | < 100 | < 100 | < 1000 | < 1000 | < 1000 | < 100 | 
Cc1nc(NCc2ccc(S(N)(=O)=O)cc2)n2nc(C)c(-c3ccc4c(c3)c(C)nn4C)c2n1 [Example 23, 4-(((8-(1,3-dimethyl-1H-indazol-5-yl)-2,7-dimethylpyrazolo[1,5-a][1,3,5]triazin-4-yl)amino)methyl)benzene-sulfonamide] | < 100 | < 10 | < 100 | < 100 |  |  |  |  |  |  |  | < 100 | < 100 | < 100 | < 100 | < 100 | < 10 | 
Cc1nc(NCc2ccc(Cl)cc2)n2nc(C)c(-c3ccc4c(c3)c(C)nn4C)c2n1 [Example 24, N-(4-chlorobenzyl)-8-(1,3-dimethyl-1H-indazol-5-yl)-2,7-dimethylpyrazolo[1,5-a][1,3,5]triazin-4-amine] | < 100 | < 100 | < 1000 | < 1000 |  |  |  |  |  |  |  | < 100 | < 100 | < 100 | < 1000 | < 100 | < 100 | 
Cc1nc(NCc2ccc(S(C)(=O)=O)cc2)n2nc(C)c(-c3ccc4c(c3)c(C)nn4C)c2n1 [Example 25, 8-(1,3-dimethyl-1H-indazol-5-yl)-2,7-dimethyl-N-(4-(methyl-sulfonyl)benzyl)pyrazolo[1,5-a][1,3,5]triazin-4-amine] | < 10 | < 10 | < 10 | < 10 |  |  |  |  |  |  |  | < 10 | < 1 | < 10 | < 10 | < 10 | < 1 | 
